“And” between values parts separate entries of the source, which are not always exact repeats. Identical values can stand only once. Like-named read-outs stand apart in the source and are kept apart here.
Experiments:
[1] = molecular target: P1 transporter; details: T. brucei P1; ref [16],[17]; cited from earlier work
[2] = molecular target: P2/TbAT1 aminopurine transporter; details: T. brucei P2; ref [16],[17]; cited from earlier work
[3] = molecular target: T1, TcrNT2 (Trypanosoma cruzi, UniProt Q4DHG0); assay: Transport of [^3H]-thymidine by TcrNT2 expressed in L. mexicana Cas9^ΔNT1 (Km, inhibition); assay type: cell-based; details: for ΔG° (Gibbs free energy of interaction): calculated from Km or Ki at 25 °C
Experimental: These values can be used to calculate the Gibbs free energy of interaction ΔG°, but these experiments cannot distinguish between the test compound being transported or merely binding to the transporter and inhibiting the transit of the [^3H]-thymidine.
Transport assays were conducted with radiolabeled nucleosides [methyl-^3H]-thymidine (20 Ci/mmol; PerkinElmer (Waltham, MA, USA)) and [2,8-^3H]-adenosine (40 Ci/mmol; American Radiolabeled Chemicals (ARC, St-Louis, MO, USA)). Cells were harvested from mid-log phase cultures by centrifugation and washed into an assay buffer (AB) as described, at a density of 1 × 10^8 cells mL^−1. Transport assays were then performed exactly as described previously, using an oil-stop protocol. Briefly, 100 µL of cell suspension (10^7 cells) was mixed with 100 µL of [^3H]-substrate at 2 × final concentration and incubated for a pre-set time prior to the addition of 800 µL of ice-cold AB containing a saturating concentration of unlabeled permeant (usually 1 or 2.5 mM) and immediate centrifugation through an oil layer to separate cells from extracellular radiolabel. The 100 µL of [^3H]-substrate could also contain unlabeled substrate or an inhibitor at 2 × concentration, as appropriate. Next, the microfuge tubes were flash frozen in liquid nitrogen; the tips with the cell pellets cut off and collected in scintillation tubes. Cells were solubilized by incubation in 2% SDS under gentle shaking on a rocking platform prior to the addition of scintillation fluid (Scintilogic U, Lablogic, Sheffield, UK). The tubes stored in the dark overnight before counting in a 300SL Hidex Scintillation Counter (Lablogic).
Michaelis-Menten constants (Km) were calculated by plotting transport rates of [^3H]-substrate against the concentration, using the Michaelis-Menten equation V0 = Vmax([substrate]/([substrate] + Km)) and non-linear regression in GraphPad Prism 8. Inhibition constants (Ki) were calculated using the Cheng-Prusoff equation: Ki = IC50/(1 + (L/Km)), where L represents the radiolabel concentration. The IC50 was obtained by a non-linear regression of the inhibition curve of transport rate versus inhibitor concentration, using an equation for a sigmoid curve with variable slope (GraphPad Prism 8). The Gibbs free energy ΔG° was obtained using the equation ΔG° = −RTln(Ki), in which R is the gas constant and T is the absolute temperature. As discussed previously, these equations apply to competitive rather than non-competitive inhibition. Given that only close analogues of the substrate were used as potential inhibitors and that Hill slopes were consistently close to −1, it is very likely that inhibition was indeed competitive.

[4] = system: L. mexicana Cas9 promastigotes; assay: Alamar blue drug sensitivity assay, L. mexicana Cas9 promastigotes; assay type: cell-based, Leishmania mexicana; details: Leishmania mexicana, 120 h, 72 h + 48 h resazurin, at least 3 independent determinations, read-out: EC50 (µM) AVG ± SEM, Cas9
Text: We used L. mexicana promastigotes of the Cas9 strain developed by Beneke at al. to generate the ΔNT1 strain, and from there the Cas9^ΔNT1+TcrNT2 (see below); The original Cas9 strain was generously donated by Prof. Eva Gluenz (University of Bern, Switzerland). All strains in standard HOMEM (GIBCO, Life Technologies, Paisley, UK) supplemented with 10% heat-inactivated fetal bovine serum (FBS; PAA Laboratories, Linz, Austria) and 1% of a penicillin–streptomycin solution (10,000 U mL^−1 each; Life Technologies) at 25 °C, as described.
The Alamar blue assay (resazurin sodium salt) was used to determine the drug sensitivity of the L. mexicana promastigotes in vitro. The assay is based on the reduction of resazurin sodium salt (blue and non-fluorescent) to resorufin (pink color and fluorescent) by live cells. HOMEM medium with 10% FBS (100 μL) was added to all wells of a white 96-well plate apart from the first well. 200 μL of a known concentration of test compounds was diluted in HOMEM medium and placed in the first well. Compounds were tested in one plate and every compound was diluted over two rows (23 concentrations), leaving the last well of every dilution as a negative control having 100 μL HOMEM medium. Next, 100 μL of L. mexicana culture at a density of 2 × 10^6 cells mL^−1 was added into every well in the plate and incubated for 72 h at a temperature of 25 °C after which resazurin sodium salt (Sigma) (20 μL of a solution of 12.5 mg in 100 mL PBS) was added and the plate was incubated under the same conditions for a further 48 h. Fluorescence was measured in a FLUOstar OPTIMA plate reader (BMG Labtech, Germany), at a wavelength of 544 nm for excitation and 620 nm for emission. The EC50 values and fluorescence data were determined and plotted by the GraphPad Prism 8 Software using an equation for a sigmoid curve with variable slope. Pentamidine was used as positive control and every experiment was performed 3–4 times independently.

[5] = system: intracellular T. cruzi amastigotes; details: T. cruzi in vitro; ref [16]; read-out: EC50 against T. cruzi in vitro; cited from earlier work
[6] = system: L. mexicana Cas9^ΔNT1 promastigotes; set-up: method as in de Almeida Fiuza et al. [41]; details: L. mexicana Cas9^ΔNT1 promastigotes; starred values; ref de Almeida Fiuza et al. [41]; read-out: EC50 (µM) AVG ± SEM, L. mexicana Cas9^ΔNT1; cited from earlier work
[7] = system: L. mexicana Cas9^ΔNT1+TcrNT2 promastigotes; set-up: method as in de Almeida Fiuza et al. [41]; details: L. mexicana Cas9^ΔNT1+TcrNT2 promastigotes; starred values; ref de Almeida Fiuza et al. [41]; read-out: EC50 (µM) AVG ± SEM, L. mexicana Cas9^ΔNT1+TcrNT2; cited from earlier work
[8] = system: L. mexicana Cas9 promastigotes; set-up: method as in de Almeida Fiuza et al. [41]; details: starred values, ref de Almeida Fiuza et al. [41], read-out: EC50 (µM) AVG ± SEM, Cas9; cited from earlier work
[9] = molecular target: T1, TcrNT2; details: TcrNT2 expressed in T. brucei, cited from earlier work
[10] = system: NT1 transport activity; set-up: method as in PMID 28453984; details: NT1 transport activity in L. mexicana; ref [36]; cited from earlier work
[11] = system: L. mexicana Cas9^ΔNT1 promastigotes; assay: Transport of [^3H]-thymidine by L. mexicana Cas9^ΔNT1 promastigotes; assay type: cell-based, Leishmania mexicana; details: 0.05 µM [^3H]-thymidine, Cas9^ΔNT1 cells, over 180 s
Experimental: It is well documented that the NT1 transport activity is responsible for the uptake of adenosine and of pyrimidine nucleosides in Leishmania spp.. […] We thus assessed the uptake of these two nucleosides in Cas9^ΔNT1. […] In contrast, the transport of 0.1 µM of [^3H]-adenosine by L. mexicana Cas9^ΔNT1 promastigotes was virtually abolished and became statistically identical to the uptake in the presence of 1 mM unlabeled adenosine (p > 0.05).
Figure 1 [^3H]-Adenosine and [^3H]-Thymidine transport by L. mexicana Cas9 and L. mexicana Cas9^ΔNT1. (A). Transport of 0.1 µM of [^3H]-adenosine by L. mexicana Cas9 and L. mexicana Cas9^ΔNT1 was measured over 20 s in the presence or absence of 1 mM unlabeled adenosine. (B). Transport of 0.05 μM of [^3H]-thymidine by L. mexicana Cas9 and L. mexicana Cas9^ΔNT1 was measured over 180 s in the presence or absence of 1 mM unlabeled thymidine, respectively. Symbols represent the average of triplicate determinations in a single representative experiment and error bars represent ± SEM.
Transport assays were conducted with radiolabeled nucleosides [methyl-^3H]-thymidine (20 Ci/mmol; PerkinElmer (Waltham, MA, USA)) and [2,8-^3H]-adenosine (40 Ci/mmol; American Radiolabeled Chemicals (ARC, St-Louis, MO, USA)). Cells were harvested from mid-log phase cultures by centrifugation and washed into an assay buffer (AB) as described, at a density of 1 × 10^8 cells mL^−1. […]

T1 sequence (Q4DHG0 entry or part of it): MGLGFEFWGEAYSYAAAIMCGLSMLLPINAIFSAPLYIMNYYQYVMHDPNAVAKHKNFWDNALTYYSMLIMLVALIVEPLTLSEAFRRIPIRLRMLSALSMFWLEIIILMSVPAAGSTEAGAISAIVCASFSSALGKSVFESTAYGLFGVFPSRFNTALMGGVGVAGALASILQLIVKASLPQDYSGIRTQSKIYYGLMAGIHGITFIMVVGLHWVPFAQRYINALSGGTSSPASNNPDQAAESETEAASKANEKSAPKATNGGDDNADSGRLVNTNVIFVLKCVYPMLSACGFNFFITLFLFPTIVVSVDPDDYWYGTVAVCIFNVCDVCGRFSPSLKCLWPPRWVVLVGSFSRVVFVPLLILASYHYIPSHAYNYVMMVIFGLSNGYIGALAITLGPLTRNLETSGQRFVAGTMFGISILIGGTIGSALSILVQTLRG

| SMILES | Ki [1] [µM] | Ki [2] [µM] | Ki [3] [µM] | ΔG° (Gibbs free energy of interaction) [3] [kcal/mol] | EC50 [4] [µM] | EC50 [5] [µM] | EC50 [6] [µM] | EC50 [7] [µM] | δ(ΔG°) with respect to ΔG° of thymidine ([3]; change in ΔG° relative to thymidine) [kcal/mol] | EC50 [8] [µM] | Ki ([9]; earlier characterization, ref Campagnaro et al. [30], read-out: Ki on thymidine transport by TcrNT2) [µM] | Km [10] [µM] | rate of [^3H]-thymidine transport [11] | Km ([9]; ref [30], read-out: Km of thymidine uptake by TcrNT2) |
| --- | --- | --- | --- | --- | --- | --- | --- | --- | --- | --- | --- | --- | --- | --- |
| Nc1ncnc2c1c(-c1ccccn1)cn2[C@@H]1O[C@H](CO)[C@@H](O)[C@H]1O [7-(2-pyridyl)-tubercidin] | < 5 | < 5 |  |  |  |  |  |  |  |  |  |  |  |  |
| Nc1ncnc2c1c(Br)cn2[C@@H]1O[C@H](CO)[C@@H](O)[C@H]1O [TH1003, 7-bromo-tubercidin] | < 5 | < 5 | 784 ± 41 | -4.73 | 0.16 ± 0.018 |  |  |  |  |  |  |  |  |  |
| Nc1ncnc2c1ccn2[C@@H]1O[C@H](CO)[C@@H](O)[C@H]1O [Tubercidin, tubercidin] |  |  | 852 ± 2 | -4.18 | 0.43 ± 0.15 | 0.34 | 25.7 ± 0.94 | 0.82 ± 0.13 | -4.78 | 1.02 ± 0.16 | 700 ± 110 |  |  |  |
| Cc1cn([C@H]2C[C@H](O)[C@@H](CO)O2)c(=O)[nH]c1=O [thymidine] |  |  |  | -8.96 |  |  |  |  |  |  |  | 11.2 ± 2.4 | 0.00004 ± 0.000006 pmol(10^7 cells)^−1 s^−1 | ~0.2 µM and 0.223 µM and 0.22 µM |
